Experimental data: patent US20230107983A1, “COMPOUND ISOLATED FROM TORILIDIS FRUCTUS, AND ANTICANCER PHARMACEUTICAL COMPOSITION CONTAINING SAME AS ACTIVE INGREDIENT” (PHARMA-GENE CO., LTD., priority 2020, published 2023)

Key:
[1] = test system: human lung cancer cells (A549); test: Nude mouse xenograft model of human lung cancer cells, oral administration; assay type: in vivo; parameters: Tumor size increase (Vt—V0): unit not given here; conditions: for tumor size compared to the control group: oral, after day 19
Procedure: Anticancer activity against lung cancer according to the oral administration of Tr-9 was confirmed through a nude mouse xenograft model of human lung cancer cells (A549). Specific pathogen-free (SPF) nude mice of the BALB/C strain were used as the animal model. Animals were bred in the animal room of Daedeok Campus of Hannam University maintained at a temperature of 23±3° C., relative humidity of 55±15%, ventilation frequency of 10-20 times/hr, lighting time of 12 hours(lights on at 8 am and off at 8 pm) and illuminance of 150 to 300 Lux.
For cancer cell transplantation, all cells were collected and counted on the last day of culture, and the concentration of human lung cancer cell line A549 was adjusted to 5×10^6 cells/ml using PBS. The adjusted cell culture solution was injected subcutaneously into the auxiliary region between the right scapula and chest wall at 0.2 ml (1×10^6 cells/mouse) per mouse.
The Tr-9 was dissolved in sterile PBS and 1 mM Tr-9 200 µℓ was orally administered per mouse once a day, and all animals were weighed immediately before the start of drug (Tr-9) administration and 10 times in total from day 2 to day 23 after cancer cell transplantation (Table 1).
In Table 1 above, data values are the mean ± standard deviation. After measuring the body weight, the animals were killed using CO2 gas, and the tumor was separated and the size was measured in 3 directions using a vernier caliper for each animal. Then, the change in tumor size was expressed as a calculated value of (length × width × height)/2 (Table 2).
Tumor size increase is (Δt)= Vt—Vo, wherein Vt is the value of measuring the tumor size by date, and Vo is the value of measuring the initial tumor size.

Human fibroblast = test: WST-1 assay, cell viability of fibroblasts (normal cells); assay type: cell-based; conditions: 10-100 µg/Mℓ, 24 hours, FIG. 9
Procedure: (§1) The cytotoxicity of the Tr-9 compound to six cancer cell lines was confirmed. Lung cancer(A549), gastric cancer(AGS), liver cancer(Hep3B)), breast cancer(MDA-MB-231), colorectal cancer(HCT116) and pancreatic cancer(BxPC-3) cell lines and fibroblasts were aliquoted in a 96-well plate in an amount of 5×10^3 cells/well, and the novel compound Tr-9 was treated thereto at a concentration of 10, 20, 40, 60, 80, 100 µg/Mℓ for 24 hours, respectively. Lung cancer cell line was further treated at a concentration of 100 µg/Mℓ for 24 hours, 48 hours and 72 hours.
(§2) Then, the amount of living cells was measured using WST(high sensitive Water Soluble Tetrazolium salt). WST reacts with dehydrogenase in living cells and produces orange-colored watersoluble formazan. Since dehydrogenase that reacts with WST is an enzyme present in the mitochondrial electron transport chain of metabolically active cells and is effective only in living cells, the production of formazan is proportional to the number of living cells. Therefore, the absorbance at 450 nm was measured to confirm the cell viability through the formation of formazan.

[2] = test system: pancreatic cancer(BxPC-3) cell line; test: WST-1 assay, cell viability of pancreatic cancer cell line; assay type: cell-based; conditions: 10-100 µg/Mℓ, 24 hours, FIG. 8
Procedure: as §1, §2

[3] = test system: Lung cancer(A549) cell line; test: WST-1 assay, cell viability of lung cancer cell line; assay type: cell-based, human; conditions: 10-100 µg/Mℓ, 24 hours, FIG. 3
Procedure: as §1, §2

[4] = test system: gastric cancer(AGS) cell line; test: WST-1 assay, cell viability of gastric cancer cell line; assay type: cell-based; conditions: 10-100 µg/Mℓ, 24 hours, FIG. 4
Procedure: as §1, §2

[5] = test system: liver cancer(Hep3B) cell line; test: WST-1 assay, cell viability of liver cancer cell line; assay type: cell-based; conditions: 10-100 µg/Mℓ, 24 hours, FIG. 6
Procedure: as §1, §2

[6] = test system: breast cancer(MDA-MB-231) cell line; test: WST-1 assay, cell viability of breast cancer cell line; assay type: cell-based; conditions: 10-100 µg/Mℓ, 24 hours, FIG. 5
Procedure: as §1, §2

[7] = test system: colorectal cancer(HCT116) cell line; test: WST-1 assay, cell viability of colorectal cancer cell line; assay type: cell-based, human; conditions: 10-100 µg/Mℓ, 24 hours, FIG. 7
Procedure: as §1, §2

[8] = oral once a day, Day 2, vs control
[9] = oral once a day, Day 5, vs control
[10] = oral once a day, Day 7, vs control
[11] = oral once a day, Day 9, vs control
[12] = oral once a day, Day 12, vs control
[13] = oral once a day, Day 14, vs control
[14] = oral once a day, Day 16, vs control
[15] = oral once a day, Day 19, vs control
[16] = oral once a day, Day 21, vs control
[17] = oral once a day, Day 23, vs control

Which “Tumor size increase (Vt—V0)” value ([1]; oral once a day, Day 0) does the source give for `C/C=C(/C)C(=O)O[C@@H]1C[C@H](C)[C@H]2CC(=O)C(C)=C2C[C@@H]1C(C)(C)OC(C)=O` [Torilin, torilin, reference compound] here?
The value was 0.0±0.0.

What about the “Tumor size increase (Vt—V0)” value ([1]; oral once a day, Day 2) of the same molecule?
Its value is 11.4±11.7.

What about the “Inhibition rate (tumor size increase)” value [1, 8] of the same molecule?
The value was 5.8%.

And the “Tumor size increase (Vt—V0)” value ([1]; oral once a day, Day 5)?
Its value is 18.1±9.4.

And the “Inhibition rate (tumor size increase)” value [1, 9]?
The value was 10.8%.

And the “Tumor size increase (Vt—V0)” value ([1]; oral once a day, Day 7)?
Its value is 28.6±3.0.

And the “Inhibition rate (tumor size increase)” value [1, 10]?
The value was 11.7%.

And the “Tumor size increase (Vt—V0)” value ([1]; oral once a day, Day 9)?
Its value is 42.0±9.8.

What about the “Inhibition rate (tumor size increase)” value [1, 11] of the same molecule?
Its value is 20.9%.

What about the “Inhibition rate (tumor size increase)” value [1, 12] of the same molecule?
Its value is 27.0%.

And the “Tumor size increase (Vt—V0)” value ([1]; oral once a day, Day 14)?
Its value is 134.6±37.6.

And the “Inhibition rate (tumor size increase)” value [1, 13]?
The value was 26.0%.

What about the “Tumor size increase (Vt—V0)” value ([1]; oral once a day, Day 16) of the same molecule?
The value was 211.8±32.9.

And the “Inhibition rate (tumor size increase)” value [1, 14]?
Its value is 27.0%.

And the “Tumor size increase (Vt—V0)” value ([1]; oral once a day, Day 19)?
Its value is 362.2±64.2.

What about the “Inhibition rate (tumor size increase)” value [1, 15] of the same molecule?
The value was 31.5%.

And the “Tumor size increase (Vt—V0)” value ([1]; oral once a day, Day 21)?
The value was 493.4±82.6.

What about the “Inhibition rate (tumor size increase)” value [1, 16] of the same molecule?
Its value is 33.0%.

And the “Tumor size increase (Vt—V0)” value ([1]; oral once a day, Day 23)?
The value was 646.9±108.8.

And the Tumor weight at Day 23 ([1]; oral once a day, Day 23)?
The Tumor weight at Day 23 was 0.745 ± 0.196 g.

And the “Tumor weight reduction rate compared to control group” value ([1]; oral once a day, Day 23)?
Its value is 29.5%.

And the “Inhibition rate (tumor size increase)” value [1, 17]?
Its value is 34.1%.

What about the “tumor size compared to the control group” value [1] of the same molecule?
The value was “statistically significantly smaller”.

What does the source list for `CC(=O)OC(C)(C)C1CC2=C(C)C(=O)CC2C(C)CC1OC(=O)CC(C)C` (centres unmarked) [Tr-9]?
cell viability of human fibroblast (Human fibroblast): little change in the cell viability; cell viability [2]: decreases the cell viability; cell viability [3]: decreases the cell viability; cell viability [4]: decreases the cell viability; cell viability [5]: decreases the cell viability; Tumor size increase (Vt—V0) ([1]; oral once a day, Day 0): 0.0±0.0; Tumor size increase (Vt—V0) ([1]; oral once a day, Day 2): 5.4±1.4; Inhibition rate (tumor size increase) [1, 8]: 55.4%; Tumor size increase (Vt—V0) ([1]; oral once a day, Day 5): 13.9±6.1; Inhibition rate (tumor size increase) [1, 9]: 31.5%; Tumor size increase (Vt—V0) ([1]; oral once a day, Day 7): 24.0±14.5; Inhibition rate (tumor size increase) [1, 10]: 25.9%; Tumor size increase (Vt—V0) ([1]; oral once a day, Day 9): 36.5±12.5; Inhibition rate (tumor size increase) [1, 11]: 31.3%; Tumor size increase (Vt—V0) ([1]; oral once a day, Day 12): 67.8±25.4; Inhibition rate (tumor size increase) [1, 12]: 33.5%; Tumor size increase (Vt—V0) ([1]; oral once a day, Day 14): 119.9±37.5; Inhibition rate (tumor size increase) [1, 13]: 34.1%; Tumor size increase (Vt—V0) ([1]; oral once a day, Day 16): 183.4±85.6; Inhibition rate (tumor size increase) [1, 14]: 36.8%; Tumor size increase (Vt—V0) ([1]; oral once a day, Day 19): 322.8±71.3; Inhibition rate (tumor size increase) [1, 15]: 39.0%; Tumor size increase (Vt—V0) ([1]; oral once a day, Day 21): 448.0±131.2; Inhibition rate (tumor size increase) [1, 16]: 39.2%; Tumor size increase (Vt—V0) ([1]; oral once a day, Day 23): 575.0±159.7; Tumor weight at Day 23 ([1]; oral once a day, Day 23): 0.676 ± 0.185 g; Inhibition rate (tumor size increase) [1, 17]: 41.4%; tumor size compared to the control group [1]: statistically significantly smaller; cell viability [6]: decreases the cell viability; cell viability [7]: decreases the cell viability
